This assay concerns tumor and normal vascular endothelium. Nature of the assay: Biodistribution of 9D2 antibody and annexin V in tumor bearing mice. Type of assay: in vivo, mouse. The protocol: To detect externally-positioned phospholipids, methods were performed essentially as previously described (Example V; Ran et al., 1998). Tumor-bearing SCID mice were injected intravenously with either 50 μg of 9D2 or biotinylated 9D2 antibody or 100 μg of biotinylated annexin V. Sixty min later mice were sacrificed and their blood circulation was exsanguinated and perfused with heparinized saline as previously described (Burrows et al., 1992). All major organs and tumor were harvested and snap-frozen for preparation of cryosections.
Sections were blocked with PBS containing 10% serum. To prevent loss of phospholipids during slide processing, detergents and organic solvents were omitted from blocking and washing buffers. Rat IgM was detected using goat anti rat IgM specific)-HRP conjugate followed by development with carbazole or DAB (Fries et al., 1993). Biotinylated reagents were detected by streptavidin conjugated to HRP.
Tumor sections derived from mice injected with saline or rat IgM of irrelevant specificity served as negative controls. […] No signal was detected under these conditions. The number of positive vessels per high power field was determined at magnification of ×100. At least 10 fields per section were examined and the average percentage of positive vessels was calculated. […]
Structures with localized 9D2 antibody or annexin V were identified as blood vessels by morphological appearance on DAB-stained sections and by co-incident staining with the pan-endothelial cell marker, MECA 32 on serial sections of frozen tissues. Quantification on DAB-stained sections was done by counting vessels stained by MECA 32, 9D2 or annexin V in serial sections of a tumor. […] At least 10 random fields per section (0.317 mm^2/field) were scored in blinded fashion by two independent observers. The mean numbers and standard errors of vessels stained by 9D2, annexin V or MECA 32 were calculated. The mean number of 9D2 or annexin V-positive vessels determined in each tumor type group was compared to the mean number of MECA 32-positive vessels in the same tumor group. […]

As to “Annexin V: High affinity PS binding ligand; natural ligand binding anionic phospholipids and PE”, the “PS-positive vessels of MECA 32-stained vessels per field” value is on record as 21.3 ± 6.6% (B16 tumor); 16.7 ± 3.9% (L540cy tumor); 45.3 ± 5.6% (MDA-MB-231 tumor, one hour after i.v. injection).

(Values after patent US20160311886A1, “Constructs Binding to Phosphatidylserine and Their Use in Disease Treatment and Imaging” (Board of Regents, The University of Texas System, priority 2005, published 2016).)
